molecular target: T1, thrombin (Bos taurus, UniProt P00735); experiment: fibrinogen coagulation time (antithrombotic activity); type: biochemical; conditions: bovine fibrinogen, thrombin solution 5 units/ml, borate saline buffer pH 7.4, 25° C; normal coagulation time 50-55 seconds
T1 construct: purchased Mochida Pharmaceutical Co., Ltd
Experimental: Immediately after mixing, the reaction mixture was transferred from the ice bath to a bath maintained at 25° C. Coagulation times were taken as the period between the time of transference to the 25° C bath and the time of the first appearance of fibrin threads.
The term "concentration required to prolong the coagulation time by a factor of two" is the concentration of an active ingredient required to prolong the normal coagulation time 50-55 seconds to 100-110 seconds.

SMILES	Concentration Required to Prolong The Coagulation Time By A Factor of Two [µM]
COCCCN(CC(=O)O)S(=O)(=O)c1ccc2cc(OC)c(OC)cc2c1 [Sample 19, N^2-(6,7-dimethoxy-2-naphthylsulfonyl)-N-(3-methoxypropyl)glycine]	5
COCCN(CC(=O)O)C(=O)[C@H](CCCNC(=N)N)NS(=O)(=O)c1ccc2cc(OC)c(OC)cc2c1 [Sample 13, N^2-(6,7-dimethoxy-2-naphthylsulfonyl)-L-arginyl-N-(2-methoxyethyl)glycine]	0.5
COCCN(CCCC(=O)O)C(=O)[C@H](CCCNC(=N)N)NS(=O)(=O)c1ccc2cc(OC)c(OC)cc2c1 [Sample 17, N^2-(6,7-dimethoxy-2-naphthylsulfonyl)-N-(2-methoxyethyl)-N-(3-carboxypropyl)-L-argininamide]	2.5
COCCN(CC(=O)Oc1cccc(C)c1)C(=O)[C@H](CCCNC(=N)N)NS(=O)(=O)c1ccc2cc(OC)c(OC)cc2c1 [Sample 52, N^2-(6,7-dimethoxy-2-naphthylsulfonyl)-L-arginyl-N-(2-methoxyethyl) glycine m-tolyl ester]	20
COCCN(CC(=O)O)C(=O)[C@H](CCCNC(=N)N)NS(=O)(=O)c1ccc2ccc(OC)cc2c1 [Sample 35, N^2-(7-methoxy-2-naphthylsulfonyl)-L-arginyl-N-(2-methoxyethyl)glycine]	0.5
CCOC(=O)CCN(CC(=O)O)C(=O)[C@H](CCCNC(=N)N)NS(=O)(=O)c1ccc2cc(OC)c(OC)cc2c1 [Sample 49, N^2-(6,7-dimethoxy-2-naphthylsulfonyl)-L-arginyl-N-(2-ethoxycarbonylethyl)glycine]	6.5
COc1ccc2ccc(S(=O)(=O)N[C@@H](CCCNC(=N)N)C(=O)N(CC[S+](C)[O-])CC(=O)O)cc2c1 (stereo partly drawn) [Sample 57, N^2-(7-methoxy-2-naphthylsulfonyl)-L-arginyl-N-(2-methylsulfinylethyl)glycine]	6.5
CCCCN(CC(=O)O)C(=O)[C@H](CCCNC(=N)N)NS(=O)(=O)c1ccc2cc(OC)c(OC)cc2c1 [Sample 3, N^2-(6,7-dimethoxy-2-naphthylsulfonyl)-L-arginyl-N-butylglycine]	0.3
COc1cc2ccc(S(=O)(=O)N[C@@H](CCCNC(=N)N)C(=O)N(CC(=O)O)CC(C)OC)cc2cc1OC (stereo partly drawn) [Sample 55, N^2-(6,7-dimethoxy-2-naphthylsulfonyl)-L-arginyl-N-(2-methoxypropyl)glycine]	6.5
CCCC(C(=O)O)N(CC(=O)O)C(=O)[C@H](CCCNC(=N)N)NS(=O)(=O)c1ccc2cc(OC)c(OC)cc2c1 (stereo partly drawn) [Sample 54, N^2-(6,7-dimethoxy-2-naphthylsulfonyl)-L-arginyl-N-(1-carboxybutyl)glycine]	55
COc1cc2ccc(S(=O)(=O)N[C@@H](CCCNC(=N)N)C(=O)N(CC(=O)O)CC(C)C)cc2cc1OC [Sample 5, N^2-(6,7-dimethoxy-2-naphthylsulfonyl)-L-arginyl-N-isobutylglycine]	2
CCCCN(CC(=O)O)C(=O)[C@H](CCCNC(=N)N)NS(=O)(=O)c1ccc2cc(OC)ccc2c1 [Sample 31, N^2-(6-methoxy-2-naphthylsulfonyl)-L-arginyl-N-butylglycine]	0.5
CCCCCCCCOC(=O)CN(CCOC)C(=O)[C@H](CCCNC(=N)N)NS(=O)(=O)c1ccc2cc(OC)c(OC)cc2c1 [Sample 50, N^2-(6,7-dimethoxy-2-naphthylsulfonyl)-L-arginyl-N-(2-methoxyethyl)glycine octyl ester]	2
CCCCN(CC(=O)O)C(=O)[C@H](CCCNC(=N)N)NS(=O)(=O)c1cc(OC)c2cc(OC)ccc2c1 [Sample 25, N^2-(4,6-dimethoxy-2-naphthylsulfonyl)-L-arginyl-N-butylglycine]	2
COCCN(CC(=O)Oc1ccc2c(c1)CCC2)C(=O)[C@H](CCCNC(=N)N)NS(=O)(=O)c1ccc2cc(OC)c(OC)cc2c1 [Sample 53, N^2-(6,7-dimethoxy-2-naphthylsulfonyl)-L-arginyl-N-(2-methoxyethyl) glycine 5-indanyl ester]	30
CCCN(CC(=O)O)C(=O)[C@H](CCCNC(=N)N)NS(=O)(=O)c1ccc2cc(OC)c(OC)cc2c1 [Sample 1, N^2-(6,7-dimethoxy-2-naphthylsulfonyl)-L-arginyl-N-propylglycine]	8
CCOC(=O)CN(CCOC)C(=O)[C@H](CCCNC(=N)N)NS(=O)(=O)c1ccc2cc(OC)c(OC)cc2c1 [Sample 14, N^2-(6,7-dimethoxy-2-naphthylsulfonyl)-L-arginyl-N-(2-methoxyethyl)glycine ethyl ester]	1.5
CCCCN(CC(=O)O)C(=O)[C@H](CCCNC(=N)N)NS(=O)(=O)c1ccc2ccc(OC)cc2c1 [Sample 39, N^2-(7-methoxy-2-naphthylsulfonyl)-L-arginyl-N-butylglycine]	0.5
COCCN(CC(=O)O)C(=O)[C@H](CCCNC(=N)N)NS(=O)(=O)c1cccc2c(OC)cccc12 [Sample 43, N^2-(5-methoxy-1-naphthylsulfonyl)-L-arginyl-N-(2-methoxyethyl) glycine]	2.5
CCCCCCN(CC(=O)O)C(=O)[C@H](CCCNC(=N)N)NS(=O)(=O)c1ccc2cc(OC)c(OC)cc2c1 [Sample 9, N^2-(6,7-dimethoxy-2-naphthylsulfonyl)-L-arginyl-N-hexylglycine]	1.5
CCOCCN(CCC(=O)O)C(=O)[C@H](CCCNC(=N)N)NS(=O)(=O)c1ccc2cc(OC)c(OC)cc2c1 [Sample 21, N^2-(6,7-dimethoxy-2-naphthylsulfonyl)-L-arginyl-N-(2-ethoxyethyl)-β-alanine]	4
COCCN(CCC(=O)O)C(=O)[C@H](CCCNC(=N)N)NS(=O)(=O)c1ccc2cc(OC)c(OC)cc2c1 [Sample 15, N^2-(6,7-dimethoxy-2-naphthylsulfonyl)-L-arginyl-N-(2-methoxyehtyl)-β-alanine]	2.5
COCCN(CC(=O)O)C(=O)[C@H](CCCNC(=N)N)NS(=O)(=O)c1cc(OC)c2cc(OC)ccc2c1 [Sample 23, N^2-(4,6-dimethoxy-2-naphthylsulfonyl)-L-arginyl-N-(2-methoxyethyl)glycine]	4
CCCCCN(CC(=O)O)C(=O)[C@H](CCCNC(=N)N)NS(=O)(=O)c1ccc2cc(OC)c(OC)cc2c1 [Sample 7, N^2-(6,7-dimethoxy-2-naphthylsulfonyl)-L-arginyl-N-pentylglycine]	5
CCOc1cc2ccc(S(=O)(=O)N[C@@H](CCCNC(=N)N)C(=O)N(CCOC)CC(=O)O)cc2cc1OCC [Sample 27, N^2-(6,7-diethoxy-2-naphthylsulfonyl)-L-arginyl-N-(2-methoxyethyl) glycine]	15

tested on: mice (male, 20 g); experiment: acute toxicity (LD50), intraperitoneal administration in mice; type: in vivo; conditions: not given
Text: Representative LD50 values, for example, for N^2 -(6, 7-dimethoxy-2-naphthylsulfonyl)-L-arginyl-N-(2-methoxyethyl)glycine, N^2 -(6, 7-dimethoxy-2-naphthylsulfonyl)-L-arginyl-N-(2-ethoxyethyl)-β-alanine, N^2 -(4, 6-dimethoxy-2-naphthylsulfonyl)-L-arginyl-N-(2-methoxyethyl)glycine, N^2 -(7-methoxy-2-naphthylsulfonyl)-L-arginyl-N-(2-methoxyethyl)glycine are 1,900-2,400, 660-1,000, 660-1,000, 2,000 milligrams per kilogram, respectively.

SMILES	acute toxicity value (LD50)
COCCN(CC(=O)O)C(=O)[C@H](CCCNC(=N)N)NS(=O)(=O)c1ccc2cc(OC)c(OC)cc2c1 [Sample 13, N^2-(6,7-dimethoxy-2-naphthylsulfonyl)-L-arginyl-N-(2-methoxyethyl)glycine]	1,900-2,400 milligrams per kilogram
COCCN(CC(=O)O)C(=O)[C@H](CCCNC(=N)N)NS(=O)(=O)c1ccc2ccc(OC)cc2c1 [Sample 35, N^2-(7-methoxy-2-naphthylsulfonyl)-L-arginyl-N-(2-methoxyethyl)glycine]	2,000 milligrams per kilogram
CCOCCN(CCC(=O)O)C(=O)[C@H](CCCNC(=N)N)NS(=O)(=O)c1ccc2cc(OC)c(OC)cc2c1 [Sample 21, N^2-(6,7-dimethoxy-2-naphthylsulfonyl)-L-arginyl-N-(2-ethoxyethyl)-β-alanine]	660-1,000 milligrams per kilogram
COCCN(CC(=O)O)C(=O)[C@H](CCCNC(=N)N)NS(=O)(=O)c1cc(OC)c2cc(OC)ccc2c1 [Sample 23, N^2-(4,6-dimethoxy-2-naphthylsulfonyl)-L-arginyl-N-(2-methoxyethyl)glycine]	660-1,000 milligrams per kilogram
